Assays:
Assay in all cases: KINOMEscan competition binding
DRAK1 = biological target: T1, DRAK1 (Homo sapiens, UniProt Q9UEE5); settings: read-out: %Inh DRAK1
T1 sequence (Q9UEE5 1-414): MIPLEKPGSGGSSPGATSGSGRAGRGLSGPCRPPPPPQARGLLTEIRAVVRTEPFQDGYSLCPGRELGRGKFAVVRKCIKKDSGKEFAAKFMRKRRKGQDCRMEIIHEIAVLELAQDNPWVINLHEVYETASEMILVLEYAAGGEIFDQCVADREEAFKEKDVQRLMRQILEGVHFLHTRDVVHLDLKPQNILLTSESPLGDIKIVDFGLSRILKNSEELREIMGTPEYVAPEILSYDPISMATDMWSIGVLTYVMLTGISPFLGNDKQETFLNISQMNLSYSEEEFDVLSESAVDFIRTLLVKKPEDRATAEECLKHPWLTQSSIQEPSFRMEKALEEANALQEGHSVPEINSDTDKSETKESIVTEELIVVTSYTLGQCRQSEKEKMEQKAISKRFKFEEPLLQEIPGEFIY

GRK2 = biological target: T2, GRK2 (Homo sapiens, UniProt P25098); settings: read-out: %Inh GRK2
T2 sequence (P25098 1-689): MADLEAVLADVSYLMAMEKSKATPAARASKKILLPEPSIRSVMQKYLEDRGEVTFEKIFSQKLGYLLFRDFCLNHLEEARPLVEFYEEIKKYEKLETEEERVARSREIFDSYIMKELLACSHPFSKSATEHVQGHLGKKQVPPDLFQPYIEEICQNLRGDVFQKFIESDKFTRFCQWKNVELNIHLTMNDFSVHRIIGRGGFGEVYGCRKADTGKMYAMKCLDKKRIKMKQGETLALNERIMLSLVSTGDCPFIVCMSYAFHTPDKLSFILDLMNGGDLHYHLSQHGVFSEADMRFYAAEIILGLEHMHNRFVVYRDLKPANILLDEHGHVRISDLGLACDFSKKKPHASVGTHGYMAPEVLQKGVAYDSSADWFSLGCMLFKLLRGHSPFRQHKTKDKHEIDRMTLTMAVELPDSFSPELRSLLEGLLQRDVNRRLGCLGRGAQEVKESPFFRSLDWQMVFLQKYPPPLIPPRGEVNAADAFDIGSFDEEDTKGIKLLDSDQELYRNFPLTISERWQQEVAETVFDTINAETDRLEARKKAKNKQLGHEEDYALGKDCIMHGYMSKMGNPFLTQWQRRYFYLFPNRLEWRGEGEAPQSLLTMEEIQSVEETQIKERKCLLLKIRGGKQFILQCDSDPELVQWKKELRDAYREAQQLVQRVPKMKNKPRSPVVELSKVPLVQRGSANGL

BRSK1 = biological target: T3, BRSK1 (Homo sapiens, UniProt Q8TDC3); settings: read-out: %Inh BRSK1
T3 sequence (Q8TDC3 1-778): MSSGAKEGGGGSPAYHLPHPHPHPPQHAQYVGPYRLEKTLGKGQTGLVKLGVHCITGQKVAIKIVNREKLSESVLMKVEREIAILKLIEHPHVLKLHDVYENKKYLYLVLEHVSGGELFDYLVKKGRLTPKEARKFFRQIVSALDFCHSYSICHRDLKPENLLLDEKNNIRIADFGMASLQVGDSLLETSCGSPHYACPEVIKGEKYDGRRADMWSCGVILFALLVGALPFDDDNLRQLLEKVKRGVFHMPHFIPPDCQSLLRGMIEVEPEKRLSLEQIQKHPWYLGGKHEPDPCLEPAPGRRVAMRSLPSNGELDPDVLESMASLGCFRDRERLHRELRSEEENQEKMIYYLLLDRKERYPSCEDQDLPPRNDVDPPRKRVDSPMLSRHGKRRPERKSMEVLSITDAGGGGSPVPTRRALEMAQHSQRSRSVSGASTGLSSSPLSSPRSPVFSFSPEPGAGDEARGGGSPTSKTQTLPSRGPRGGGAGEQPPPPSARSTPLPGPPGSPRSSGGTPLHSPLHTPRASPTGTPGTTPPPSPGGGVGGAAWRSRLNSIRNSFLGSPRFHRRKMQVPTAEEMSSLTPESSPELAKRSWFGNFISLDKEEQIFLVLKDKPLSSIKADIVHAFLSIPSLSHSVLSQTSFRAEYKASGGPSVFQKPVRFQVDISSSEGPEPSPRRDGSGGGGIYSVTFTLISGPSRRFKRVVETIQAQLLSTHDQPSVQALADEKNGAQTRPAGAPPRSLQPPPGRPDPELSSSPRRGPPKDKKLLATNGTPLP

HPK1 = HPK1 (Homo sapiens, UniProt Q92918); settings: read-out: %Inh HPK1
Sequence of HPK1 (Q92918 whole entry): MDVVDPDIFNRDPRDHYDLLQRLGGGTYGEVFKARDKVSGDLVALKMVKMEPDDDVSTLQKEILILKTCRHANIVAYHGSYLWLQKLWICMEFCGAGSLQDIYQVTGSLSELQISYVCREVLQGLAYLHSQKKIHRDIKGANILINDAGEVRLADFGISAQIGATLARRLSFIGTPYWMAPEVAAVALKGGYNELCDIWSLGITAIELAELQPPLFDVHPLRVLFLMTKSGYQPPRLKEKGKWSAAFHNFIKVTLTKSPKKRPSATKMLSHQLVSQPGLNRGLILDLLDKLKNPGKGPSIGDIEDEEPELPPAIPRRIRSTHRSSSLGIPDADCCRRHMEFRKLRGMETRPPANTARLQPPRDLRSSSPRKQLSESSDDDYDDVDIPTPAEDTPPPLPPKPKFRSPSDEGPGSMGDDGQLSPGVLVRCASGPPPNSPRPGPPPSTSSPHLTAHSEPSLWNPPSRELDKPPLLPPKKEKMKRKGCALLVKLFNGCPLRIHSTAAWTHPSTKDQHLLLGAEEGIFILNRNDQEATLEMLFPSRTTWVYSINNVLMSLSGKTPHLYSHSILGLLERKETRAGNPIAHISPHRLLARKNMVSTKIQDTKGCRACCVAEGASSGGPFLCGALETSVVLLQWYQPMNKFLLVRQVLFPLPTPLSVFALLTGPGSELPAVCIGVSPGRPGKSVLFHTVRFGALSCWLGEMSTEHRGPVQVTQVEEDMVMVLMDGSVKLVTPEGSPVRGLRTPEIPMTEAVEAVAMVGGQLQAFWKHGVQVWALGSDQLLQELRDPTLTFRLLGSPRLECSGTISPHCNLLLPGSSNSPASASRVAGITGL

GSK3B = GSK3B (Homo sapiens, UniProt P49841); settings: read-out: %Inh GSK3B
Sequence of GSK3B (P49841 whole entry): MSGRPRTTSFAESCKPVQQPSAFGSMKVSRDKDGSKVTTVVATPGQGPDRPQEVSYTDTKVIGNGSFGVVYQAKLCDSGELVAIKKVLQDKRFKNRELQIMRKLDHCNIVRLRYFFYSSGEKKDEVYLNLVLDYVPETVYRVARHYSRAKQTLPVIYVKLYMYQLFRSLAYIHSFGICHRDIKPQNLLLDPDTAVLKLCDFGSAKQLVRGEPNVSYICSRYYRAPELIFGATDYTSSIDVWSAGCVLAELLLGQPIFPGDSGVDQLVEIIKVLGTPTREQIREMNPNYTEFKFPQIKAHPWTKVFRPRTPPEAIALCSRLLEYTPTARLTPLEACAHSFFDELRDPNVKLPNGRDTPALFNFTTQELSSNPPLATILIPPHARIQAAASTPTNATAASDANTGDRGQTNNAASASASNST

KIT = KIT (Homo sapiens, UniProt P10721); settings: read-out: %Inh KIT
Sequence of KIT (P10721 26-976): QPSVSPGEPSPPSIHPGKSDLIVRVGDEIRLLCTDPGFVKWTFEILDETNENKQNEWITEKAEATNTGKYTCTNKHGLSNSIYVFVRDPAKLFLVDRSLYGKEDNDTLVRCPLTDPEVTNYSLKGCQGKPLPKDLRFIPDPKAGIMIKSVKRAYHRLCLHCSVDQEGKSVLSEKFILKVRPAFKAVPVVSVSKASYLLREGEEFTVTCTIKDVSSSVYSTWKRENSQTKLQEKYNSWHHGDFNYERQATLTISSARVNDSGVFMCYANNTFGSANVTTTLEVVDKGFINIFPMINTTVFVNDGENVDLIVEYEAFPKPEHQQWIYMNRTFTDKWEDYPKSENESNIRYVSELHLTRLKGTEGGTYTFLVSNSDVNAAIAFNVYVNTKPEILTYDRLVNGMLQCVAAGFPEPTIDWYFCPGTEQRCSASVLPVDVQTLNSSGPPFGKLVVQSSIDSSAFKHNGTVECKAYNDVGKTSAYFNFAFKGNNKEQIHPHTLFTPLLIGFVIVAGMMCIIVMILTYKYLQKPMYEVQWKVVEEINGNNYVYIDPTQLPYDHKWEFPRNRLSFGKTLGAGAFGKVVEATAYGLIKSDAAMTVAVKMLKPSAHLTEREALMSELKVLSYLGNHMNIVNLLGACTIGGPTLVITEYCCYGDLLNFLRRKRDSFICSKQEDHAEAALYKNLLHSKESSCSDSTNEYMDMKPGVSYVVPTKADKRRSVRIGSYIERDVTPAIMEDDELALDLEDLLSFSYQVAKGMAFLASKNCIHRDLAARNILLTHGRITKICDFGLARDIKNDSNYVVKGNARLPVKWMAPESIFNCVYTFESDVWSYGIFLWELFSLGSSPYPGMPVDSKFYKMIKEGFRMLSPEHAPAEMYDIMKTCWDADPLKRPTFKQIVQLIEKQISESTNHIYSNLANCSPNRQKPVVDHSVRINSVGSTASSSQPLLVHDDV

DCAMKL3 = biological target: T4, DCAMKL3 (Homo sapiens, UniProt Q9C098); settings: read-out: %Inh DCAMKL3
T4 sequence (Q9C098 1-648): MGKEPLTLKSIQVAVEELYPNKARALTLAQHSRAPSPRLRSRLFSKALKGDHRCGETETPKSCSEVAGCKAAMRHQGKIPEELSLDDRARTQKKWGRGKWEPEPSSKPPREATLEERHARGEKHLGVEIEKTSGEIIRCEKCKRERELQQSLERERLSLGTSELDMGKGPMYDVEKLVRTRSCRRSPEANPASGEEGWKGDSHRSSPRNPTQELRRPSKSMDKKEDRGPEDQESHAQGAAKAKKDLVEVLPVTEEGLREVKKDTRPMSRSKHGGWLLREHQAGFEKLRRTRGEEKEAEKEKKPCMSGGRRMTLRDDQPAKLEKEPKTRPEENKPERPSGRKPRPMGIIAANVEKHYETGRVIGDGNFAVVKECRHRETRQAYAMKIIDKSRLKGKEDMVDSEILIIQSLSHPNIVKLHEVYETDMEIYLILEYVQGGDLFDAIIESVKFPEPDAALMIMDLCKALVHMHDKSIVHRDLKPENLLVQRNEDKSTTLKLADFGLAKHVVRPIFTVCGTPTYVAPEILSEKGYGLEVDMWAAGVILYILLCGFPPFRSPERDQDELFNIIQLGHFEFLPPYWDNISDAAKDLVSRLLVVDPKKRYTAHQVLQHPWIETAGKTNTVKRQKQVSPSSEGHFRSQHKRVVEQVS

SMILES	inhibition at 1 µM (DRAK1) [%]	inhibition at 1 µM (GRK2) [%]	inhibition at 1 µM (BRSK1) [%]	inhibition at 1 µM (HPK1) [%]	inhibition at 1 µM (GSK3B) [%]	inhibition at 1 µM (KIT) [%]	inhibition at 1 µM (DCAMKL3) [%]
Cn1cc(-c2cnc(N)c3c(-c4ccc5c(c4)CCN5C(=O)Cc4ccccc4)csc23)cn1 [UNC10225012A]	0	0	0	94	0	100	5
CS(=O)(=O)Cc1ccc(Nc2nccc(-c3c(-c4cccc(NC(=O)C5CCCCC5)c4)nn4ncccc34)n2)cc1 [UNC10225159A]	0	44	0	14	20	88	0
Cc1ccc(NC(=O)Nc2cccc(C(F)(F)F)c2)cc1 [UNC10225187A]	15	0	0	0	0	91.4	13
COc1cccc(OC)c1C(=O)Nc1cccc(-c2nn3ccccc3c2-c2ccnc(Nc3cccc(F)c3)n2)c1 [UNC10225310A]	12	0	0	2	0	90.9	16
O=c1cc(N2CCOCC2)nc2n(Cc3cccc(Cl)c3Cl)c(C3CC3)nn12 [UNC10225469A]	11	0	3	14	0	0	17

Source: PMC5540273, “Progress towards a public chemogenomic set for protein kinases and a call for contributions” (PLoS ONE, 2017)
